Experiments:
[1] = test system: normal CRL2120 human skin fibroblasts; test: Neutral red (NR) uptake cytotoxicity assay, normal CRL2120 fibroblasts; assay type: cell-based; conditions: Skin fibroblast, 72 h incubation
Description: (§1) Six human cancer cell lines and one normal cell line were used in this study. They included A549 human non-small cell lung cancer (NSCLC) cell line, obtained from the Institute for Fermentation, Osaka (IFO, Japan) and provided by Prof. Dr. Tansu Koparal (Anadolu University, Eskisehir, Turkey), SPC212 human mesothelioma cell line obtained from American Type Culture Collection (ATCC) and provided by Dr. Asuman Demiroğlu Zergeroğlu (Gebze Technical University, Kocaeli, Turkey), DLD-1 colorectal adenocarcinoma cell lines obtained from ATCC (CCL-221), Caco2 colorectal adenocarcinoma cells (ATCC, HTB-37) obtained from the ŞAP Institute of Turkey (Ankara), HepG2 hepatocarcinoma cells (ATCC, HB-8065) and MCF-7 breast adenocarcinoma cells (ATCC, HTB-22) were provided by Prof. Dr. Tansu Koparal (Anadolu University, Eskisehir, Turkey). The normal CRL2120 human skin fibroblasts were obtained from ATCC [CCD1094Sk (ATCC, CRL-2120)]. The cells were maintained as a monolayer in DMEM medium (Sigma-aldrich, Munich, Germany) medium supplemented with 10% fetal calf serum and 1% penicillin (100 U/mL)-streptomycin (100 μg/mL) in a humidified 5% CO2 atmosphere at 37 °C.
(§2) The cytotoxicity of samples was performed by NR uptake assay as previously described. This method is based on the ability of viable cells to incorporate and bind the supravital dye NR in the lysosomes. The procedure is cheaper and more sensitive than other cytotoxicity tests. […] Briefly, cells were detached by treatment with 0.25% trypsin/EDTA (Invitrogen) and an aliquot of 1 × 10^4 cells was placed in each well of a 96-well cell culture plate […]. The cells were allowed to attach overnight and subsequently treated with different concentrations of the 14 compounds. Each of the studied samples was immediately added in varying concentrations in additional 100 μL of culture medium to obtain a total volume of […]/well. After 72 h incubation in humidified 5% CO2 atmosphere at 37 °C, the medium was removed and 200 μL fresh medium containing 50 μg/mL NR was added to each well and incubation continued for an additional 3 h at 37 °C in 5% CO2 atmosphere. The dye medium was then removed and each well was then washed rapidly with 200 μL phosphate buffer saline (PBS) followed by addition of 200 μL of acetic acid-water-ethanol in water (1:49:50). The plates were kept for 15 min at room temperature to extract the dye and then shaken for a few minutes on a GFL 3012 shaker (Gesellschaft für Labortechnik mbH, Burgwedel, Germany). Absorbance was measured on ELx 808 Ultra Microplate Reader (Biotek) equipped with a 540 nm filter. Each assay was done at least three times, with three replicates each. The viability was evaluated based on a comparison with untreated cells. The IC50 values represent the sample’s concentrations required to inhibit 50% of cell proliferation and were calculated from a calibration curve by linear regression using Microsoft Excel.

[2] = test system: A549 human non-small cell lung cancer (NSCLC) cell line; test: Neutral red (NR) uptake cytotoxicity assay, A549; assay type: cell-based; conditions: for IC50: Homo sapiens, A549, 72 h, neutral red assay, 72 h incubation; for selectivity index A549: IC50 in CRL2120 normal fibroblasts divided by IC50 in A549
Description: as §1
as §2, with “lysosomes.” for “lysosomes. The procedure is cheaper and more sensitive than other cytotoxicity tests.”

caspase 9 in MCF-7 cells = test: Caspase-Glo 9 assay; assay type: cell-based, human; conditions: IC50 and 2-fold IC50, 6 h (data not shown)
Method: Caspases activity in MCF-7 cells was detected using Caspase-Glo 3/7 and Caspase-Glo 9 Assay kits (Promega, Mannheim, Germany) as previously reported. […] Luminescence was measured using an BioTek Synergy™ HT multi-detection microplate reader. Caspase activity was expressed as percentage of the untreated control.

[3] = test system: HepG2 hepatocarcinoma cells; test: Neutral red (NR) uptake cytotoxicity assay, HepG2; assay type: cell-based, human; conditions: for IC50: Homo sapiens, HepG2, neutral red assay, 72 h incubation, read-out: IC50 HepG2; for selectivity index HepG2: IC50 in CRL2120 normal fibroblasts divided by IC50 in HepG2
Description: as §1, §2

MCF-7 cells = test: Flow cytometry cell cycle analysis and detection of apoptotic cells; assay type: cell-based, human; conditions: for Sub-G0/G1 (apoptotic) cells, % of cells: non-treated cells 3.1%; for cell cycle arrest: ¼ × IC50 to IC50, 72 h
Method: The cell-cycle analysis was performed by flow cytometry using BD cycletest^TM Plus DNA Kit Assay (BD Biosciences, San Jose, USA). The BD Cycletest™ Plus DNA kit provides a set of reagents for isolating and staining cell nuclei. Flow cytometric analysis of differentially stained cells is used to estimate the DNA index (DI) and cell-cycle phase distributions. Briefly, MCF-7 cells (3 mL, 1 × 10^5 cells/mL) were seeded into each well of 6-well plates and allowed to attach for 24 h. […] The untreated cells (control) were also included in the assay. They were further trypsinized and suspended in 1 mL PBS, then centrifuged at 400 g for 5 min at room temperature (RT). The cells were further processed according to the manufacturer protocol: addition of 250 μL of solution A (trypsin buffer), 10 min incubation at RT followed by the addition of 200 μL of solution B (trypsin inhibitor and RNAse buffer), 10 min incubation at RT followed by the addition of 200 μL of solution C (2–8 °C) (propidium iodide stain solution), 10 min on ice. The cells were further measured on a BD FACS Aria I Cell Sorter Flow Cytometer (Becton-Dickinson, Germany). For each sample, 10^4 cells were counted. For PI excitation, an argon-ion laser emitting at 488 nm was used. Cytographs were analyzed using BD FACSDiva™ Flow Cytometry Software Version 6.1.2 (Becton-Dickinson).

SMILES | IC50 [1] | IC50 [2] | selectivity index A549 [2] | activity of caspase 9 (caspase 9 in MCF-7 cells) | IC50 [3] | selectivity index HepG2 [3] | Sub-G0/G1 (apoptotic) cells, % of cells (MCF-7 cells; 1/4xIC50, 72 h) | Sub-G0/G1 (apoptotic) cells, % of cells (MCF-7 cells; IC50, 72 h) | cell cycle arrest (MCF-7 cells)
CC1=CC(=O)c2c(O)cccc2C1=O [Compound 4, 5-hydroxy-2-methyl-1,4-naphthalenedione] | 67.7 ± 6.49 µM | 1.14 ± 0.02 µM | 59.35 | no modification | 1.01 ± 0.08 µM | 66.99 | 10.4% | 20.4% | cell cycle arrest between G0/G1 and S phases
CCCCCCCCCCCCCC1=C(O)C(=O)C=C(O)C1=O [Compound 9, 2,5-dihydroxy-3-tridecyl-2,5-cyclohexadiene-1,4-dione] | 95.2 ± 6.65 µM | 27.4 ± 1.46 µM | 3.48 | no modification | 32.7 ± 0.61 µM | 2.91 | 34.8% | 43.2% | cell cycle arrest between G0/G1 and S phases

Source: publication PMC5175396, “Cytotoxicity of Plumbagin, Rapanone and 12 other naturally occurring Quinones from Kenyan Flora towards human carcinoma cells” (BMC Pharmacology & Toxicology, 2016)
